Experimental findings from patent publication US6087355A, “Cephalosporin antibiotics” (Microcide Pharmaceuticals, Inc., priority 1996, dated 2000) are described below.

Structures can show the parent of a compound that is named as a salt.

In test [1] the test system is S. aureus Col(Meth^R)(lac^-). Description: In vitro MIC, agar dilution. The following applies: Staphylococcus aureus, read-out: minimum inhibitory concentration (MIC). Format: cell-based. A digest of the protocol: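 Two-fold dilutions (128 to ≤0.25 μg/mL, in duplicate) were poured into Mueller-Hinton agar. Log-phase broth cultures were spot-inoculated at about 10^4 cfu per spot and incubated 35-36°C for 16-20 hours; the MIC was the lowest concentration inhibiting growth. Col is a high-level PBP2a producer; Col 8A is its isogenic PBP2a-lacking partner.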

Test [2] deals with S. aureus Spain #356(Meth^R). Description: In vitro MIC, agar dilution. Format: cell-based. To be noted: Staphylococcus aureus, read-out: minimum inhibitory concentration (MIC). The essentials:
(§1)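 Agar dilution, Mueller-Hinton; drug 128 → ≤0.25 μg/mL two-fold, duplicates. Inoculum ~10^4 cfu/spot (log phase). 35-36 °C, 16-20 h. MIC = lowest conc. with no growth.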

For test [3], the system named is E. faecium ATCC 35667. In words: In vitro MIC, agar dilution. In kind it is cell-based. To be noted: Enterococcus faecium, ATCC35667, read-out: minimum inhibitory concentration (MIC). A digest of the protocol:
as §1

Test [4] concerns S. aureus ATCC 29213. In words: In vitro MIC, agar dilution. Format: cell-based. To be noted: Staphylococcus aureus, ATCC29213, read-out: minimum inhibitory concentration (MIC). A digest of the protocol:
as §1

Test [5] concerns S. haemolyticus 05(Meth^R). Description: In vitro MIC, agar dilution. In kind it is cell-based. The following applies: Staphylococcus haemolyticus, read-out: minimum inhibitory concentration (MIC). The essentials:
as §1
For orientation: In agar dilution the substance is mixed into plates at graded concentrations.

Test [6] concerns E. faecalis ATCC 29212. In words: In vitro MIC, agar dilution. The following applies: Enterococcus faecalis, ATCC29212, read-out: minimum inhibitory concentration (MIC). In kind it is cell-based. The essentials: as §1
Test [7] concerns E. faecium A491(Amp^R). Description: In vitro MIC, agar dilution. Format: cell-based. The following applies: Enterococcus faecium, read-out: minimum inhibitory concentration (MIC). A digest of the protocol: as §1
Test [8] has as its system S. aureus ATCC 33593(Meth^R). Description: In vitro MIC, agar dilution. In kind it is cell-based. The following applies: Staphylococcus aureus, ATCC33593, read-out: minimum inhibitory concentration (MIC). The essentials:
as §1

In test [9] the test system is E. coli ATCC 25992. Description: In vitro MIC, agar dilution. Format: cell-based. The following applies: Escherichia coli, ATCC25992, read-out: minimum inhibitory concentration (MIC). The essentials: as §1
Test [10] has as its system S. aureus 76(Meth^R)(lac^+). Description: In vitro MIC, agar dilution. Format: cell-based. To be noted: Staphylococcus aureus, read-out: minimum inhibitory concentration (MIC). A digest of the protocol: as §1
Test [11] relates to E. faecium VanA(Van^R). In words: In vitro MIC, agar dilution. Format: cell-based. The following applies: Enterococcus faecium, read-out: minimum inhibitory concentration (MIC). The essentials:
as §1

The test system of test [12] is S. aureus ATCC 13709(Meth^S). Description: In vitro MIC, agar dilution. Format: cell-based. To be noted: Staphylococcus aureus, ATCC13709, S. aureus ATCC 13709(Meth^S); read-out: minimum inhibitory concentration (MIC). A digest of the protocol:
as §1

The subject of test [13] is S. aureus PC1(Meth^S)(lac^+). In words: In vitro MIC, agar dilution. In kind it is cell-based. To be noted: Staphylococcus aureus, read-out: minimum inhibitory concentration (MIC). The essentials:
as §1

The test system of test [14] is E. faecalis VanB(Van^R). Description: In vitro MIC, agar dilution. In kind it is cell-based. The following applies: Enterococcus faecalis, read-out: minimum inhibitory concentration (MIC). A digest of the protocol: as §1
Test [15] deals with P. aeruginosa ATCC 27853. In words: In vitro MIC, agar dilution. In kind it is cell-based. The following applies: Pseudomonas aeruginosa, ATCC27853, read-out: minimum inhibitory concentration (MIC). A digest of the protocol: as §1
For test [16], the system named is S. aureus strain ATCC 13709 (methicillin-susceptible). In words: Murine model for lethal bacteremic peritonitis. Format: in vivo, female Swiss-Webster mice. To be noted: Staphylococcus aureus, ATCC13709, SC, 72 h; for responders at 1.25 mg/kg: read-out: Survivors (converted); for ED50: two equal doses, IP challenge, read-out: ED50. As for the experimental part:
Groups of 5 female Swiss-Webster mice (Simonsen, Gilroy, Calif.) each are challenged by the intraperitoneal (IP) route with tenfold increments of a bacterial inoculum. This permits calculation of the mean lethal dose (LD50) and the LD100. For preliminary evaluation of a new antibiotic, mice are challenged IP with an LD100 titer of bacteria. In two equal doses administered at the time of bacterial challenge and 2 hours later, groups of 10 mice each are treated subcutaneously with two-fold increments of the test drug and an antibiotic of known efficacy in mice and humans (i.e., positive control). Mice are observed for 72 h. Those alive at 72 h are considered long term survivors. The total drug dose in mg/kg that protects 50% of mice in a group from death is termed the mean protective dose (PD50). PD50 s are similarly determined for several pathogens. The quantitative endpoints for the new drug are then compared with those obtained with reference antibiotics.
Six ten-fold dilutions of inoculum suspended in 0.5 mL of sterilized 7% hog gastric mucin (Sigma) are injected IP in groups of 5 mice each. A control group of 5 mice receive mucin alone. Mice are observed for 72 h. Those alive at 72 h are considered long term survivors. The mean lethal dose (LD50) and 100% lethal dose (LD100) are determined by the probit test.
For antibiotic efficacy studies, mice are challenged IP with bacterial titers that will afford an LD100 for the test strain. In two equal doses administered at the time of bacterial challenge and 2 hours later, groups of 10 mice each are treated by the subcutaneous route (SC) with twofold increments of the test antibiotic; another group is treated similarly with a reference antibiotic of known efficacy in animals and man. Drug doses can range from 0.01 to 512 mg/kg. If the drug is poorly soluble, Tween 20 or propylene glycol will be employed to solubilize the drug. Animals are observed for 72 h. The 50% protective dose (PD50) is calculated in mg/kg by the probit method. The PD50 is the same as the 50% effective dose (ED50) and the 50% curative dose (CD50). Samples of blood from the hearts of all animals that die and from half the mice that survive are cultured on brain-heart infusion agar. Animals that received a protective dosage of the test drug will be alive at 72 h, although they may appear moderately ill to very ill during the observation period. […] Most of these mice will die within 6 to 48 h. Those alive at 72 h will be considered long term survivors.
(Compound numbers correspond to those in MIC tables; data reported for challenge with methicillin-susceptible S. aureus strain ATCC 13709.)

One may read the ED50 as the dose at which the effect has come halfway, by size or by number of responders. In the case of `N=C(N)SCc1cnccc1SC1=C(C(=O)O)N2C(=O)[C@@H](NC(=O)/C(=N\O)c3csc(N)n3)[C@H]2SC1` [Cmpd 3, (7R)-7-[(Z)-2-(aminothiazol-4-yl)-2-(hydroxyimino)acetamido]-3-(3-isothioureidomethylpyrid-4-ylthio)-3-cephem-4-carboxylate, trifluoroacetic acid salt], the MIC in [1] came out at 8 µg/mL; in [2], 8 µg/mL; in test [3] it was 2 µg/mL; in [4], 0.5 µg/mL; in test [5], 8 µg/mL; in test [6], 0.5 µg/mL. For the same compound, the MIC in [7] was greater than 32 µg/mL; in test [8] it was 8 µg/mL; in [9], 2 µg/mL; in [10] it was 8 µg/mL; in [11] it was 8 µg/mL; in [12], 0.5 µg/mL. The MIC was 0.5 µg/mL in test [13], 1 µg/mL in test [14] and greater than 32 µg/mL in test [15]. The responders at 0.156 mg/kg in test [16] (read-out: Survivors) worked out at 0%. Besides, in [16] (read-out: Survivors), the responders at 0.3125 mg/kg is 50%. In addition, the responders at 0.625 mg/kg in test [16] (read-out: Survivors) stood at 80%. Further, in test [16], the responders at 1.25 mg/kg is 70%. For the same compound, the responders at 2.5 mg/kg in [16] (read-out: Survivors) worked out at 90%. Further, the ED50 in test [16] was 0.42 mg/kg.
For `NCCSCc1cnccc1SC1=C(C(=O)O)N2C(=O)[C@@H](NC(=O)/C(=N\O)c3csc(N)n3)[C@H]2SC1` [Cmpd 10, (7R)-7-[(Z)-2-(aminothiazol-4-yl)-2-(hydroxyimino)acetamido]-3-(3-aminoethylthiomethylpyrid-4-ylthio)-3-cephem-4-carboxylate, trifluoroacetic acid salt], the MIC in test [1] came to 2 µg/mL; in test [2], 2 µg/mL; in test [3] it was 2 µg/mL; in [4], 0.5 µg/mL; in test [5], 4 µg/mL; in test [6] it was 0.5 µg/mL. Moreover, the MIC in [7] is greater than 32 µg/mL; in [8], 2 µg/mL; in test [9], 4 µg/mL; in test [10] it was 2 µg/mL; in [11], 4 µg/mL; in test [12], 0.5 µg/mL. In addition, the MIC was 0.5 µg/mL in test [13], 1 µg/mL in test [14] and greater than 32 µg/mL in test [15]. For the same compound, the responders at 0.078 mg/kg in [16] (Dose 0.078 mg/kg, read-out: Survivors) was 20%. The responders at 0.156 mg/kg in test [16] (read-out: Survivors) was 20%. In addition, in test [16] (read-out: Survivors), the responders at 0.3125 mg/kg came out at 20%. Further, the responders at 0.625 mg/kg in test [16] (read-out: Survivors) came out at 80%. In test [16], the responders at 1.25 mg/kg was 100%. In test [16], the ED50 amounted to 1.29 mg/kg.
For the compound `N=C(N)NCCSCc1cnccc1SC1=C(C(=O)O)N2C(=O)[C@@H](NC(=O)/C(=N\O)c3csc(N)n3)[C@H]2SC1` [Cmpd 14, (7R)-7-[(Z)-2-(aminothiazol-4-yl)-2-(hydroxyimino)acetamido]-3-(3-guanidinoethylthiomethylpyrid-4-ylthio)-3-cephem-4-carboxylate, trifluoroacetic acid salt], the MIC in [1] was 4 µg/mL; in test [2], 4 µg/mL; in test [3] it was 1 µg/mL; in [4] it was 0.5 µg/mL; in test [5], 4 µg/mL; in [6] it was 0.25 µg/mL. Besides, the MIC is greater than 32 µg/mL in test [7]; 2 µg/mL in [8]; 4 µg/mL in test [9]; 4 µg/mL in [10]; 2 µg/mL in [11]; 0.25 µg/mL in test [12]. For the same compound, the MIC in test [13] was 0.5 µg/mL; in [14] it was 0.25 µg/mL; in test [15], greater than 32 µg/mL. In test [16] (read-out: Survivors), the responders at 0.3125 mg/kg is 10%. In addition, the responders at 0.625 mg/kg in [16] (read-out: Survivors) was found to be 30%. Besides, the responders at 1.25 mg/kg in test [16] is 30%. Also, the responders at 2.5 mg/kg in test [16] (read-out: Survivors) stood at 90%. The responders at 5 mg/kg in [16] (read-out: Survivors) is 100%. In addition, in test [16], the ED50 turned out to be 1.13 mg/kg.
Consider `CNCCSCc1cnccc1SC1=C(C(=O)O)N2C(=O)[C@@H](NC(=O)/C(=N\O)c3csc(N)n3)[C@H]2SC1` [Cmpd 15, (7R)-7-[(Z)-2-(aminothiazol-4-yl)-2-(hydroxyimino)acetamido]-3-(3-methylaminoethylthiomethylpyrid-4-ylthio)-3-cephem-4-carboxylate, trifluoroacetic acid salt], for which the MIC in test [1] worked out at 4 µg/mL; in test [2], 4 µg/mL; in [3], 2 µg/mL; in [4] it was 1 µg/mL; in test [5] it was 8 µg/mL; in test [6], 2 µg/mL. Besides, the MIC in test [7] is greater than 32 µg/mL; in test [8] it was 4 µg/mL; in [9] it was 8 µg/mL; in [10], 4 µg/mL; in test [11] it was 4 µg/mL; in test [12], 0.5 µg/mL. The MIC in test [13] is 1 µg/mL; in test [14] it was 0.5 µg/mL; in test [15] it was greater than 32 µg/mL. In addition, the responders at 0.3125 mg/kg in test [16] (read-out: Survivors) turned out to be 20%. In addition, in test [16] (read-out: Survivors), the responders at 0.625 mg/kg amounted to 0%. The responders at 1.25 mg/kg in [16] was 20%. In [16] (read-out: Survivors), the responders at 2.5 mg/kg amounted to 50%. For the same compound, the responders at 5 mg/kg in test [16] (read-out: Survivors) was determined as 50%. The ED50 in test [16] is 4.63 mg/kg.
For `CC(C)(N)CSCc1cnccc1SC1=C(C(=O)O)N2C(=O)[C@@H](NC(=O)/C(=N\O)c3nc(N)sc3Cl)[C@H]2SC1` [Cmpd 62, (7R)-7-[(Z)-2-(2-amino-5-chlorothiazol-4-yl)-2-(hydroxyimino)acetamido]-3-(3-(2-amino-2-methylpropylthiomethyl)pyrid-4-ylthio)-3-cephem-4-carboxylate, trifluoroacetic acid salt], the MIC in test [1] was 4 µg/mL; in test [2], 4 µg/mL; in test [3], 1 µg/mL; in test [4], 0.5 µg/mL; in test [5] it was 4 µg/mL; in test [6], 0.13 µg/mL. Also, the MIC in test [7] is 16 µg/mL; in test [8], 4 µg/mL; in test [9], 8 µg/mL; in test [10], 4 µg/mL; in test [11] it was 2 µg/mL; in test [12] it was 0.5 µg/mL. Further, the values for the MIC in test [13], in [14] and in test [15] were 0.5 µg/mL, 0.25 µg/mL and greater than 32 µg/mL, respectively.
